Laboratory results as given in PubChem BioAssay (NCI).
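Cells were grown in 96-well plates and exposed to each compound for 48 hours at five concentrations; endpoints were interpolated linearly between bracketing concentrations, or set to the highest concentration if not reached. At the TGI there is no net growth.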 Where a SMILES comes first, the peptide text is derived from it. [ ]: non-standard residue; d: D form. The star is where a group is joined. X28 = COC1=CC(=O)N(C(=O)[C@@H](O*)C(C)C)[C@H]1Cc1ccccc1; NMeV = CN[C@H](C(=O)O)C(C)C; Hexanoyl = CCCCCC(=O)*

Tests used:
Experiment in all cases: NCI-60 cell line screen, 48 h
786-0 renal = system: 786-0 renal
ACHN renal = system: ACHN renal
COLO 205 colon = system: COLO 205 colon
DU-145 prostate = system: DU-145 prostate
HCT-116 colon = system: HCT-116 colon
HCT-15 colon = system: HCT-15 colon
HT29 colon = system: HT29 colon
IGROV1 ovarian = system: IGROV1 ovarian
K-562 leukemia = system: K-562 leukemia
LOX IMVI melanoma = system: LOX IMVI melanoma
MCF7 breast = system: MCF7 breast
MDA-N = system: MDA-N
NCI-H226 lung = system: NCI-H226 lung
NCI-H23 lung = system: NCI-H23 lung
NCI-H460 lung = system: NCI-H460 lung
NCI-H522 lung = system: NCI-H522 lung
OVCAR-3 ovarian = system: OVCAR-3 ovarian
SF-539 CNS = system: SF-539 CNS
SNB-19 CNS = system: SNB-19 CNS
A549 NSCLC = system: A549 NSCLC

Compound	TGI (786-0 renal) [µM]	TGI (ACHN renal) [µM]	TGI (COLO 205 colon) [µM]	TGI (DU-145 prostate) [µM]	TGI (HCT-116 colon) [µM]	TGI (HCT-15 colon) [µM]	TGI (HT29 colon) [µM]	TGI (IGROV1 ovarian) [µM]	TGI (K-562 leukemia) [µM]	TGI (LOX IMVI melanoma) [µM]	TGI (MCF7 breast) [µM]	TGI (MDA-N) [µM]	TGI (NCI-H226 lung) [µM]	TGI (NCI-H23 lung) [µM]	TGI (NCI-H460 lung) [µM]	TGI (NCI-H522 lung) [µM]	TGI (OVCAR-3 ovarian) [µM]	TGI (SF-539 CNS) [µM]	TGI (SNB-19 CNS) [µM]	TGI (A549 NSCLC) [µM]
CCC1NC(=O)C1NC(=O)OC (stereo not given)	> 100	> 100	> 100	> 100	> 100	> 100	> 100	> 100	> 100	> 100	> 100	> 100	> 100	> 100	> 100	> 100	> 100	> 100	> 100	–
CS(=O)(=O)N1CC(CCl)c2ccc([N+](=O)[O-])cc21 (stereo not given)	> 100	> 100	> 100	> 100	> 100	> 100	> 100	> 100	> 100	> 100	> 100	> 100	> 100	> 100	> 100	> 100	> 100	> 100	> 100	> 100
CCCC1(NC(=O)C(F)(F)F)CC(OC)OC2COC(c3ccccc3)OC21 (stereo not given)	> 100	> 100	48.6	> 100	> 100	> 100	–	> 100	> 100	> 100	> 100	> 100	> 100	> 100	> 100	> 100	> 100	> 100	> 100	> 100
C=CCOc1ccc(/C(N=Nc2ccc([N+](=O)[O-])cc2)=N/NC(=O)c2ccccc2)cc1OC	> 100	> 100	> 100	> 100	> 100	> 100	> 100	> 100	–	> 100	> 100	> 100	> 100	> 100	> 100	> 100	> 100	> 100	> 100	> 100
C/C(=N/NC(=S)Nc1ccc([N+](=O)[O-])cc1)c1cccc(/C(C)=N\NC(=S)Nc2ccc([N+](=O)[O-])cc2)n1	11.6	1.14	15.7	> 37.7	12.2	2.67	16	8.11	> 39.4	12.7	3.86	15.1	1.84	12.2	9.11	21.2	–	2.28	17.8	11.4
O=C1c2c(ccc3c2CCCC3)CC12Cc1ccc3c(c1C2=O)CCCC3	> 100	> 100	–	> 100	> 100	> 100	> 100	> 100	> 100	> 100	> 100	> 100	–	> 100	> 100	> 100	> 100	> 100	> 100	> 100
O=S(=O)(O)c1ccc2cccc(N=Nc3c(O)ccc4ccccc34)c2c1	> 100	> 100	> 100	> 100	> 100	> 100	–	> 100	> 100	–	> 100	> 100	> 100	> 100	> 100	> 100	> 100	> 100	> 100	> 100
CSc1ncc2c(C#N)c3sc4ccccc4n3c(=O)c2n1	> 100	> 100	> 100	> 100	> 100	> 100	> 100	> 100	> 100	> 100	> 100	> 100	> 100	> 100	> 100	–	> 100	> 100	> 100	> 100
CCCCCC(=O)N[C@H](C(=O)N[C@H](C(=O)N(C)[C@H](C(=O)N1CCC[C@H]1C(=O)N1CCC[C@H]1C(=O)O[C@H](C(=O)N1C(=O)C=C(OC)[C@@H]1Cc1ccccc1)C(C)C)C(C)C)C(C)C)C(C)C (Hexanoyl-VV[NMeV]PP-X28)	> 100	> 100	> 100	> 100	> 100	> 100	> 100	> 100	> 100	> 100	> 100	> 100	> 100	> 100	> 100	> 100	> 100	> 100	–	–
CCC1C(C#N)=C(N)OC2=C1C(=O)CC(C)(C)C2 (stereo not given)	> 100	> 100	> 100	> 100	> 100	> 100	> 100	> 100	–	> 100	> 100	> 100	–	> 100	> 100	> 100	> 100	> 100	> 100	> 100
O=C1C(Cl)=C(OCCCCl)C(=O)c2c(O)ccc(O)c21	4.81	16.3	3.09	22.8	3.91	5.06	5	13.1	1.7	3.35	3.12	2.98	30.8	5.53	27.2	–	6.77	8.97	32.5	14.6
C[C@]12CC[C@@H]3c4ccc(OP(=O)(O)O)cc4CC[C@H]3[C@@H]1CCC2=O	> 100	> 100	> 100	> 100	> 100	> 100	> 100	> 100	> 100	> 100	> 100	> 100	–	> 100	> 100	> 100	> 100	> 100	> 100	> 100
CC(=O)N1C(=O)/C(=C\C(=O)c2ccc([N+](=O)[O-])cc2)c2ccccc21	29.1	29.6	41.1	> 100	37.8	32.1	34.6	53.9	36.5	–	69.7	49.2	> 100	88.7	39.9	30.9	32.2	49.8	> 100	> 100
CCOC(=O)c1ccc(N=C2C(=S)N(c3ccc(C(=O)OCC)cc3)C(=N)N2/N=C/c2ccccc2)cc1	30	–	25	> 100	30.5	> 100	> 100	> 100	> 100	–	28.5	33	31.4	–	> 100	6.1	28.8	51.2	44.5	> 100
CC(C)(Br)C(Br)CCC(C)(Br)C(Br)CO (stereo not given)	> 10	> 10	> 10	> 10	> 10	> 10	> 10	> 10	> 10	–	> 10	> 10	> 10	> 10	–	> 10	> 10	> 10	> 10	> 10
CCN(CC)CCCNc1nc(=O)[nH]c(C)c1C(=O)Nc1cccc2cc3ccccc3cc12	> 100	> 100	> 100	> 100	> 100	> 100	> 100	> 100	> 100	> 100	> 100	> 100	> 100	> 100	–	> 100	> 100	> 100	> 100	> 100
O=C(/C=C/c1ccccc1)/C=N/N1C(=S)N(c2ccccc2)C(=Nc2ccccc2)C1=Nc1ccccc1	> 100	> 100	> 100	> 100	> 100	> 100	> 100	> 100	> 100	–	> 100	> 100	> 100	> 100	> 100	62.9	> 100	> 100	> 100	> 100
CCN(CC)CCC(=O)c1ccc(Oc2ccc(Cl)cc2)cc1	28.3	25.8	45.1	47.8	32	38.8	47.2	41.8	> 100	28.8	55.9	29.6	–	34	29.2	38	28.6	42.1	> 100	> 100
O=S(=O)(O)c1ccc(O)c2ncc(Cl)cc12	> 100	> 100	> 100	> 100	> 100	> 100	> 100	> 100	> 100	> 100	> 100	> 100	> 100	> 100	> 100	–	> 100	> 100	> 100	> 100
